The subject of test [1] is RCC4/VHL. Briefly: XTT cell viability assay, RCC4 with VHL-reintroduced (RCC4/VHL) versus RCC4, selectivity ratio. As to conditions: second TABLE 1 (Examples 39-55). The format is cell-based. On the procedure: (§1) RCC4 parental and RCC4 with VHL-reintroduced (RCC4/VHL), SN12C and SN12C-CSCG-VHL shRNA were maintained in DMEM supplemented with 10% FCS.
(§2) For 2,3-bis[2-methoxy-4-nitro-5-sulfophenyl]-2H-tetrazolium-5-carboxanilide (XTT) assays, five thousand cells were plated in 96-well plates. The next day, vehicle (DMSO) or drug was added by serial dilution. Four days later, media were aspirated, XTT solution (0.3 mg/ml of XTT (Sigma), 2.65 mg/ml N-methyl dibenxopyrazine methyl sulfate (Simga) in phenol red-free media) was added, and the plates were incubated at 37° C. for 1-2 hours. Metabolism of XTT was quantified by measuring the absorbance at 450 nm. IC50s were calculated using linear interpolation. For clonogenic survival assays, three hundred cells were plated per 60 mm tissue culture dish. The cells were allowed to attach overnight and then treated with vehicle or drug for 14 days. Colonies were fixed and stained with crystal violet (0.1% crystal violet in 95% ethanol). All conditions were measured in triplicate and each experiment was done in duplicate or triplicate. To determine necrosis, cells were treated with drug for a given time point. Media and cells were collected, centrifugated, and resuspended in 0.4% trypan blue (Invitrogen). Live and dead cells were counted on a hematocytometer.
(§3) The designation A reflects an IC50 of <1 nM; B reflects an IC50 ranging from 1 to 20 nM; and C is an IC50 of >20 nM. The designation “a” reflects a ratio of RCC4/RCC-VHL+ ranging from 1 to ≦10; “b” reflects from 10 to ≦100; “c” reflects a ratio of >100. Compounds 1-29 have an IC50 value of ≦10 μM when tested in the above assay.
In general terms: Tetrazolium dyes change colour on reduction, which living cells bring about.

The test system of test [2] is RCC4. Briefly: XTT cell viability assay in RCC4 parental (VHL-deficient) cells. The format is cell-based. The note with it: four days with drug, second TABLE 1 (Examples 39-55). The protocol: as §1, §2, §3

On to `Cc1oc(-c2ccc(C(=O)NCc3cccnc3)cc2)nc1CS(=O)(=O)C1CCN(C2CCCCC2)CC1` [Example 55], for which the “Ratio (IC50 RCC4 Proficient VHL)/IC50 RCC4 Deficient VHL)” value (from here on “Ratio”) in test [1] was “a (a ratio of RCC4/RCC-VHL+ ranging from 1 to ≦10)”. In addition, the IC50 in test [2] (Homo sapiens, 96 h) was < 1 nM.

As to `Cc1oc(-c2ccc(C(=O)NCc3cccnc3)cc2)nc1CS(=O)(=O)[C@H]1CC[C@H](N2CCCCC2)C1` [Example 49], the “Ratio” value in test [1] is reported as “b (from 10 to ≦100)”. The IC50 in test [2] (Homo sapiens, 96 h) is < 1 nM.

For `Cc1oc(-c2ccc(C(=O)NCc3cccnc3)cc2)nc1CS(=O)(=O)[C@H]1CC[C@@H](N)CC1` [Example 41, 4-(4-(((1s,4s)-4-aminocyclohexylsulfonyl)methyl)-5-methyloxazol-2-yl)-N-(pyridin-3-ylmethyl)benzamide], in test [1], the “Ratio” value is “b (from 10 to ≦100)”. Besides, the IC50 in test [2] is > 20 nM.

One may read the IC50 as the midpoint of a concentration-inhibition curve.

(Values after patent publication US9296732B2, “Substituted benzamides and their uses” (The Board of Trustees of the Leland Stanford Junior …, priority 2012, dated 2016).)
